# Publication PMC4806436, “Disrupted ADP-ribose metabolism with nuclear Poly (ADP-ribose) accumulation leads to different cell death pathways in presence of hydrogen peroxide in procyclic Trypanosoma brucei” (Parasites & Vectors, 2016)
# Like-named read-outs stand apart in the source and are kept apart here.
# Tests used:
# [1] = system: Trypanosoma brucei procyclic parasites; assay: Effect of inhibitors on procyclic parasite growth (OD600, 48 h); type: cell-based; settings: 2.5 μM, 48 h, positive control
# Protocol: Trypanosoma brucei procyclic parasites were grown in SDM-79 medium for 48 h until reaching a density of 5×10^6 cells/mL. Aliquots of 200 μl were distributed in 96-well plates and inhibitors were present at different final concentrations, as indicated in the figures. Nifurtimox (NFX) was used as a positive control in concentrations ranging from 0.25–25 μM. Culture density was checked by OD600 after 48 h.
# In all experiments, triplicates were done for each condition tested and data significance was assessed by one-way Anova (GraphPad Prism5.03 version Software).
# [2] = system: Trypanosoma brucei bloodstream parasites; assay: Effect of inhibitors on bloodstream parasite growth (Neubauer count, 24 h); type: cell-based; settings: Olaparib 29 nM, Rucaparib 1.5 μM, 3-AB 580 μM, Nifurtimox 2.5 μM
# Protocol: Trypanosoma brucei bloodstream parasites were grown in HMI-11 medium for 24 h until reaching a density of 5×10^5 cells/mL. Aliquots of 100 μL were distributed in 96-well plates and inhibitors were added at different concentrations as indicated in the figures. After an incubation period of 24 h, the parasite number was counted with a Neubauer chamber. In all experiments, triplicates were done for each condition tested and data significance was assessed by one-way Anova (GraphPad Prism5.03 version Software).
# TbPARP = TbPARP (Trypanosoma brucei brucei, UniProt Q0PW89); assay: biochemical; settings: 500 nM NAD+, 11 min at 25 °C, mean of three dose-response curves
# Chain of TbPARP (Q0PW89 entry or part of it): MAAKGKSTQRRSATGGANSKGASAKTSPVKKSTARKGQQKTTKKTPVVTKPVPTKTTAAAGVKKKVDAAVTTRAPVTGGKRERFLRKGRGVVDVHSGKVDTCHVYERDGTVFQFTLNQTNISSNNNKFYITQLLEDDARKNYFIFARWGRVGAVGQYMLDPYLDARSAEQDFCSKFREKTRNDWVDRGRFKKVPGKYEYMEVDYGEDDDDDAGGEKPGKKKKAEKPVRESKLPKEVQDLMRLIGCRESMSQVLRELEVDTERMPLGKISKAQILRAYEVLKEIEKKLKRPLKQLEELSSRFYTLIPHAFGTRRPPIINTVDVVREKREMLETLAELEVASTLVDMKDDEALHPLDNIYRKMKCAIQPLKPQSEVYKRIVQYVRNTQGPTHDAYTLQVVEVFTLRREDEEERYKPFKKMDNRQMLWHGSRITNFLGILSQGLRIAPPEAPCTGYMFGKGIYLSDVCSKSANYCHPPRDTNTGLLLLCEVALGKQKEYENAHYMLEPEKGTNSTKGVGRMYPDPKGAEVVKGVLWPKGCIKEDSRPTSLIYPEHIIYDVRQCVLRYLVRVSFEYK
# Protocol: The optimal conditions for the activity of purified recombinant TbPARP, were determined by using a fluorometric activity assay. Incubation at 25 °C with shaking at 300 rpm was placed in propylene plates of 96 wells (Greiner BioOne). To terminate the reaction 2 M KOH (20 μL) and 20 % acetophenone in ethanol (20 μL) were added to each well. After incubating for 10 min at 4 °C, 90 μl of 88 % formic acid was added and incubated in an oven at 110 °C for 5 min. This reaction converts remaining NAD^+ to a fluorescent derivative. After incubation, the plate was allowed to cool down for 15 min and fluorescence was measured using excitation wavelengths of 372 nm and 444 nm for excitation and emission, respectively (Varioskan Flash 4.00.53, Thermo Scientific). Consumption of NAD^+ was detected by the decrease in fluorescence. Experiments were done in triplicates. The activity in control wells were kept under 25 % by optimizing the protein concentration and the incubation time, in order to get a robust signal without slowing down the enzyme activity.
# A small set of cations was also tested in order to verify whether the enzymatic activity would depend on them. […] The final assay buffer was 100 mM Na2HPO4/NaH2PO4 pH 7, 500 μM TCEP, 1 μg/μL BSA, and 0.025 mg/mL activated DNA (Sigma Aldrich) and 500 nM NAD^+ (Sigma Aldrich).
# Thirty - one compounds were tested. Dilutions from DMSO stocks were made (100 μM, 10 μM and 1 μM) and aliquots of those were used in the enzymatic reaction with 10-fold dilution. Inhibitor solutions were added in triplicates to the plate, followed by the addition of the NAD^+. Reactions were initiated by addition of TbPARP diluted in the same buffer (10 nM). The plate was incubated at 25 °C with shaking (300 rpm, Biosan PST-100 HL) for 45 min. […] To detect any potential fluorescence inherent in the compounds, control reactions were carried out separately with compound alone at 10 μM final concentration. The possible fluorescence quenching properties were controlled using wells within the experimental plate containing the compound with 500 nM NAD^+ in the assay buffer.
# The IC50 value for 3-AB (Alexis Biochemicals) was also determined to be used as a reference. Briefly, reaction mix together with the inhibitors at half log dilutions were added to a 96-well plate (10 data points). Reactions were incubated for 11 min at 25 °C after initiating the reaction with the addition of 5 nM TbPARP at a final volume of 50 μL. Measurement of the remaining NAD^+ is described in section Screening of TbPARP inhibitors. All reactions were performed in triplicates and three independent dose response curves were fitted for each inhibitor. Control wells with only NAD^+ or NAD^+ and enzyme were used in the curve fitting, as detailed in our previous work.
# [3] = system: PAR formation in procyclic T. brucei; assay: In culture inhibition of PAR formation after H2O2, Dot blot, procyclic form; type: cell-based, Trypanosoma brucei; settings: for reduction of PAR synthesis in the parasite: discussion, parasite form not given; for inhibition of PAR formation in culture, procyclic form: inhibitor at 10-fold in vitro IC50 (0.23 μM 4-ANI; 65 nM EB-47; 29 nM Olaparib; 1.5 μM Rucaparib), 30 min preincubation, 500 μM H2O2 10 min
# Protocol: T. brucei procyclic strain 29–13 [29] was cultured at 28 °C in SDM-79 (Bioscience) containing 10 % (v/v) FCS and 0002 % hemin. T. brucei bloodstream strain 427 90-13 [29] was cultured at 37 °C in HMI-11 (Iscore’s Modified Dulbecco’s Medium (Invitrogen), 100 mg/L sodium pyruvate, 136.1 mg/L hypoxantine, 38.7 mg/L thymidine, 28.22 mg/L bathocuproinedisulfonic acid, 181.8 mg/L L-cysteine, 3.024 mg/L sodium carbonate, 196 μM β-mercaptoethanol) containing FCS (10 % v/v). Parasite viability was analyzed by microscopy.
# For in culture inhibition assays, parasites of the procyclic form of Trypanosoma brucei were grown for 48 h up to a density of 5×10^6 parasites/mL. Parasites of the bloodstream form were grown for 24 h up to a density of 5×10^5 parasites/mL. In both cases, cells were harvested and preincubated for 30 min or 10 min in PBS-Glucose 2 % with inhibitors added, after which the parasites were treated with 500 μM or 250 μM hydrogen peroxide for procyclic and bloodstream forms, respectively, for 10 min.
# hPARP-1 = settings: cited from earlier work
# T. cruzi epimastigotes = settings: reported earlier; reference not given; cited from earlier work
# [4] = 5 nM TbPARP, read-out: TbPARP IC50
# [5] = 5 nM TbPARP, read-out: TbPARP pIC50 ± SEM (converted)
Compound,IC50 (TbPARP; [4]) [nM],IC50 (TbPARP; [5]) [nM],IC50 (hPARP-1; reported for human PARP-1) [nM],further results
CC1CS(=O)(=O)CCN1/N=C/c1ccc([N+](=O)[O-])o1 (centres unmarked) [Nifurtimox],–,–,–,effect on procyclic parasite growth [1]: slowed down procyclic parasite growth; effect on bloodstream parasite growth [2]: did provoke a decrease on bloodstream parasite growth
"Nc1ccc2c3c(cccc13)C(=O)NC2=O [Compound 4-ANI, 8-amino-3-azatricyclo[7.3.1.0^{5,13}]trideca-1(12),5,7,9(13),10-pentaene-2,4-dione]",23,22.9,–,"reduction of PAR synthesis in the parasite [3]: not able to reduce PAR synthesis in the parasite; inhibition of PAR formation in culture, procyclic form [3]: scarcely inhibited the enzyme; IC50 (hPARP-1): 180 nM"
"CN(C)CC(=O)Nc1ccc2[nH]c(=O)c3ccccc3c2c1 [PJ-34, 2-(dimethylamino)-N-(6-oxo-5,6-dihydrophenanthridin-2-yl)acetamide]",580,589,–,–
"C[C@]1(c2nc3c(C(N)=O)cccc3[nH]2)CCCN1 [Veliparib, 2-[(2R)-2-methylpyrrolidin-2-yl]-1H-1,3-benzodiazole-4-carboxamide]",49,49,–,Ki (hPARP-1): 5 nM
"Oc1nc(C2CC2)nc2c1CSCC2 [RF03876, 2-cyclopropyl-5H,7H,8H-thiopyrano[4,3-d]pyrimidin-4-ol]",1100,1150,–,–
"Cc1nc(=O)c2cccc(O)c2[nH]1 [NU1025, 8-hydroxy-2-methyl-1,4-dihydroquinazolin-4-one]",–,–,400,"IC50 (TbPARP; TbPARP IC50, 5 nM TbPARP): 680 nM; IC50 (TbPARP; TbPARP pIC50 ± SEM, 5 nM TbPARP): 676 nM"
"Nc1ncnc2c1ncn2[C@@H]1O[C@H](C(=O)N2CCN(CC(=O)Nc3cccc4c3CNC4=O)CC2)[C@@H](O)[C@H]1O [EB-47, 2-(4-{[(2S,3S,4R,5R)-5-(6-amino-9H-purin-9-yl)-3,4-dihydroxyoxolan-2-yl]carbonyl}piperazin-1-yl)-N-(1-oxo-2,3-dihydro-1H-isoindol-4-yl)acetamide]",6.5,6.46,–,"reduction of PAR synthesis in the parasite [3]: not able to reduce PAR synthesis in the parasite; inhibition of PAR formation in culture, procyclic form [3]: did not inhibit TbPARP at all"
"O=c1[nH]ccc2c(O)cccc12 [1,5-Isoquinolinediol, 5-hydroxy-1,2-dihydroisoquinolin-1-one]",1200,1230,390,–
"NC(=O)c1cccc(N)c1 [Compound 3-AB, 3-aminobenzamide]",58000,57500,22000,effect on bloodstream parasite growth [2]: did provoke a decrease on bloodstream parasite growth; effect on T. cruzi growth (T. cruzi epimastigotes): reported to diminish T. cruzi growth
